According to patent US7442501B2, “SQV nucleic acids and polypeptides” (Massachusetts Institute of Technology, priority 2002, dated 2008):

Columns and labels:
SQV-4 = target: T1, SQV-4 (Caenorhabditis elegans, UniProt Q19905, T2A); type: biochemical, C. elegans; details: for NAD+ reduction: UDP-glucose replaced, 100 μM NAD+ and 250 μM nucleotide sugar
T1 construct: were used for PCR-amplification of the sqv-4 ORF, and the resulting product was digested with NcoI and XhoI and cloned into pET21d; made in house; host or cells: E. coli BL21 pLysS, pET21d; soluble fraction used without purification
Description: The sqv-4 coding sequences corresponding to the wild-type, n2827, and n2840 alleles were cloned into the pET21d E. coli expression vector and transformed into BL21 pLysS. The oligonucleotides 5′-[…]-3′ (SEQ ID NO:53) and 5′-[…]-3′ (SEQ ID NO:54) were used to generate R353H n2827 and T4101 n2840 mutations, respectively, by site-directed mutagenesis. The oligonucleotides 5′-[…]-3′ (SEQ ID NO:55) and 5′-[…]-3′ (SEQ ID NO:56) were used for PCR-amplification of the sqv-4 ORF, and the resulting product was digested with NcoI and XhoI and cloned into pET21d. All three proteins have a threonine to alanine mutation in the second amino acid because of the addition of an NcoI site at the 5′ end. SQV-4 expression was induced by incubation with 1 mM IPTG for three to four hours at 37° C. E. coli were pelleted and resuspended in 50 mM Tris-HCl pH 7.5, 1 mM DTT, 1 mM EDTA, 1 mM PMSF, 2 μg/ml pepstatin A, and aprotinin and lysed using a French pressure cell. The soluble fraction was separated from the insoluble inclusion bodies by centrifugation at 12,000 g for 20 minutes.
All assays were performed at room temperature (20 to 22° C.) in 50 mM Tris-HCl, 2 mM dithiothrietol (DTT), pH 8.7. The initial velocity of the reaction was determined from time points during the first 60 seconds after addition of the SQV-4 extract.

[1] = target: T2, Protein A-SQV-2 fusion protein (Caenorhabditis elegans, UniProt Q9N491); assay: Galactosyltransferase II assay, acceptor substrate specificity; type: biochemical, C. elegans; details: for acceptor for glycosylation by SQV-2: UDP-[3H]galactose with various acceptor substrates; for Enzyme Activity: acceptor 5 mM, donor UDP-[3H]galactose
T2 construct: protein A (modified, secreted); made in house; host or cells: COS7 cells, transient transfection; purified from culture supernatant on IgG-agarose
Procedure: We assayed a recombinant Protein A-SQV-2 fusion protein expressed in COS7 cells for galactosyltransferase II activity.
Galactosyltransferase activity was assayed in vitro using UDP-[^3H]galactose together with various acceptor substrates.
A sqv-2 coding sequence encoding amino acids 25 to 330 of SQV-2, thus lacking the transmembrane domain at the amino terminus, was cloned into pDEST-CMV-protA vector as follows. The oligonucleotides 5′-[…]-3′ (SEQ ID NO:45) and 5′-[…]-3′ (SEQ ID NO:46) were used as the primers for PCR-amplification, and the resulting product was digested with EcoRI and XhoI and cloned into pENTR3C. The Gateway LR cloning reaction (Invitrogen) was used to transfer the sqv-2 ORF lacking TM into the Gateway destination vector pDEST-CMV-protA to generate a modified amino-terminal protein A fusion protein using the CMV promoter. The plasmid pDEST-CMV-protA was constructed by cloning the Gateway C.1 reading frame cassette, from the manufacturer, into pRK5F10ProteinA (Wei et al., Proc. Natl. Acad. Sci. USA 90:3885-8, 1993), which was digested with EcoRI and blunted using dNTPs, Klenow fragment and T4 DNA polymerase. This plasmid was designed to express a secreted protein A-SQV-2 (amino acids 25-330) fusion protein in mammalian cells.
COS7 cells were transiently transfected with pDEST-CMV-protA-sqv-2 using LIPOFECTAMINE (3:1 (w/w) liposome formulation of the polycationic lipid 2,3-dioleyloxy-N-[2(sperminecarboxamido)ethyl]-N,N-dimethyl-1-propanaminium trifluoroacetate (DOSPA) (Chemical Abstracts Registry name: N-[2-(2,5-bis[(3-aminopropyl)amino]-1-oxpentyl}amino)ethyl]-N,N-dimethyl-2,3-bis(9-octadecenyloxy)-1-propanaminium trifluoroacetate), and the neutral lipid dioleoyl phosphatidylethanolamine (DOPE) in membrane filtered water) (Life Technologies) in accordance with the manufacturer's instructions. […] After seventy-two hours of incubation, the fusion protein was recovered and purified from the cell culture supernatant by affinity chromatography using IgG-agarose (Wei et al., Proc. Natl. Acad. Sci. USA 90:3885-8, 1993).
Galactosyltransferase II activity was assayed using UDP-[1-^3H]Gal (NEN Life Sciences Products, 12.8 Ci/mmol) and various mono- and di-saccharide acceptor substrates, including Xylβ-O-benzyl (Bn), Xylβ-O-naphthol, Galβ-O-naphthalenemethanol (NM), GalNAcβ-O-NM, GlcNAcβ-O-NM, Galβ,14Xylβ-O-Bn, Galβ1,3GlcNAc α-O-NM, Galβ1,3Galβ-O-NM, Galβ1,4GlcNAcβ-O-NM, Galβ1,3GlcNAcβ-O-NM, GlcNAcβ1,3Galβ-O-NM, Manaα,1,6Man α-O-decenyl (Lugemwa et al., J. Biol. Chem. 271:19159-65, 1996; Sarkar et al., Carbohydr Res 329:221-33, 2000; Brown et al., Bioorg. Med. Chem. 9:815-24, 2001). […] After incubation at room temperature for 3 hours, the reaction products were diluted with 1 mL of 0.5 M NaCl and applied to a Sep-Pak C18 (100 mg; Waters). After washing with 5 ml of 0.5 M NaCl and water, the radiolabeled products were eluted with 50% methanol, dried and counted by liquid scintillation.

T2 sequence (Q9N491 25-330): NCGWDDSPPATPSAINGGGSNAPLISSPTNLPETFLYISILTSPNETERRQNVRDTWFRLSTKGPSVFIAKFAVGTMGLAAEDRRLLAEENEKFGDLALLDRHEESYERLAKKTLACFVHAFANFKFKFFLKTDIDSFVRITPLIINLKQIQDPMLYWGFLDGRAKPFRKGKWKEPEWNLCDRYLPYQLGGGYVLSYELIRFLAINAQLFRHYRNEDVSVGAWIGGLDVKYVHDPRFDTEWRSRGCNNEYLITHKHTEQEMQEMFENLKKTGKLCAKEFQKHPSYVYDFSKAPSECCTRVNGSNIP
T1 sequence (Q19905 whole entry T2A): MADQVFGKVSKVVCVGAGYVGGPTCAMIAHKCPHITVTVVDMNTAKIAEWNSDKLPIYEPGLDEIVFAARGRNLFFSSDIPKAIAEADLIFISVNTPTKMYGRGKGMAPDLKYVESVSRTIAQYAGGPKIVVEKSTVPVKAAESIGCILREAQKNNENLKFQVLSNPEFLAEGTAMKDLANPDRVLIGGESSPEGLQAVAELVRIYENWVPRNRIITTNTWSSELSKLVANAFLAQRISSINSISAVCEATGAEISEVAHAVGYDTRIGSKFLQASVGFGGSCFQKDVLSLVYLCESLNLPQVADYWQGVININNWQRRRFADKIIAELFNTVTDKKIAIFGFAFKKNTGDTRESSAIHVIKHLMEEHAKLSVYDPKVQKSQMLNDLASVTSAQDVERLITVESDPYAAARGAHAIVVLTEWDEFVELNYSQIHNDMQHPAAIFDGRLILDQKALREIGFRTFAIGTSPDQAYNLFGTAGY

Molecule | NAD+ reduction (SQV-4) | Enzyme Activity [1] | further results
CC(=O)N[C@H]1[C@@H](OP(=O)(O)OP(=O)(O)OC[C@H]2O[C@@H](n3ccc(=O)[nH]c3=O)[C@H](O)[C@@H]2O)O[C@H](CO)[C@@H](O)[C@@H]1O [UDP-N-acetyl-glucosamine] | undetectable |  | 
Nc1ncnc2c1ncn2[C@@H]1O[C@H](COP(=O)(O)OP(=O)(O)O[C@H]2O[C@H](CO)[C@@H](O)[C@H](O)[C@H]2O)[C@@H](O)[C@H]1O [ADP-glucose] | undetectable |  | 
Nc1ccn([C@@H]2O[C@H](COP(=O)(O)OP(=O)(O)O[C@H]3O[C@H](CO)[C@@H](O)[C@H](O)[C@H]3O)[C@@H](O)[C@H]2O)c(=O)n1 [CDP-glucose] | undetectable |  | 
O[C@@H]1[C@@H](O)[C@H](OCc2ccc3ccccc3c2)OC[C@H]1O [Xylβ1-O-naphthol, xylose-(β1)-O-naphthalenemethanol] |  | 0 pmol/h/mL medium | acceptor for glycosylation by SQV-2 [1]: None of the other acceptors tested acted as an acceptor
CC(=O)N[C@H]1[C@H](OCc2ccccc2)O[C@H](CO)[C@H](O)[C@@H]1O [GalNAcβ1-O-Bn] |  | 0 pmol/h/mL medium | 
Nc1nc2c(ncn2[C@@H]2O[C@H](COP(=O)(O)OP(=O)(O)O[C@H]3O[C@H](CO)[C@@H](O)[C@H](O)[C@H]3O)[C@@H](O)[C@H]2O)c(=O)[nH]1 [GDP-glucose] | undetectable |  | 
Cc1cn([C@H]2C[C@H](O)[C@@H](COP(=O)(O)OP(=O)(O)O[C@H]3O[C@H](CO)[C@@H](O)[C@H](O)[C@H]3O)O2)c(=O)[nH]c1=O [TDP-glucose] | undetectable |  | 
O[C@@H]1[C@@H](O)[C@H](OCc2ccccc2)OC[C@H]1O [Xylβ1-O-Bn, xylose-(β1)-O-benzyl] |  | 0 pmol/h/mL medium | acceptor for glycosylation by SQV-2 [1]: None of the other acceptors tested acted as an acceptor
OC[C@H]1O[C@@H](O[C@@H]2CO[C@@H](OCc3ccccc3)[C@H](O)[C@H]2O)[C@H](O)[C@@H](O)[C@H]1O [Galβ1,4Xylβ1-O-Bn, galactose-(β1,4)-xylose(β1)-O-benzyl] |  | 2660 pmol/h/mL medium | acceptor for glycosylation by SQV-2 [1]: specifically catalyzed addition of galactose
C=CCCCCCCCCO[C@H]1O[C@H](CO[C@H]2O[C@H](CO)[C@@H](O)[C@H](O)[C@@H]2O)[C@@H](O)[C@H](O)[C@@H]1O [Manα1,6Manα1-O—C10] |  | 0 pmol/h/mL medium | 
wild-type SQV-4 protein: recombinant SQV-4 protein expressed in E. coli, soluble lysate fraction (protein, UniProt Q19905 1-481, looked up) UDP-glucose 6-dehydrogenase: MTDQVFGKVSKVVCVGAGYVGGPTCAMIAHKCPHITVTVVDMNTAKIAEWNSDKLPIYEPGLDEIVFAARGRNLFFSSDIPKAIAEADLIFISVNTPTKMYGRGKGMAPDLKYVESVSRTIAQYAGGPKIVVEKSTVPVKAAESIGCILREAQKNNENLKFQVLSNPEFLAEGTAMKDLANPDRVLIGGESSPEGLQAVAELVRIYENWVPRNRIITTNTWSSELSKLVANAFLAQRISSINSISAVCEATGAEISEVAHAVGYDTRIGSKFLQASVGFGGSCFQKDVLSLVYLCESLNLPQVADYWQGVININNWQRRRFADKIIAELFNTVTDKKIAIFGFAFKKNTGDTRESSAIHVIKHLMEEHAKLSVYDPKVQKSQMLNDLASVTSAQDVERLITVESDPYAAARGAHAIVVLTEWDEFVELNYSQIHNDMQHPAAIFDGRLILDQKALREIGFRTFAIGTSPDQAYNLFGTAGY |  |  | UDP-glucose dehydrogenase activity increase (SQV-4; lysates vs lysates with vector alone or mutant SQV-4 protein): at least 20 fold
